Data: patent publication US6004957A, “Sulfonamide inhibitors of aspartyl protease” (Vertex Pharmaceuticals, Incorporated, priority 1998, dated 1999)
Structures can show the parent of a compound that is named as a salt.

These compounds were tested on HIVIIIb in CCRM-CEM cells (assay: Anti-viral potency in CCRM-CEM cells acutely infected with HIVIIIb (method of Meek et al.), extracellular p24 antigen). Settings: Human immunodeficiency virus 1, HIV replication, Table VIII, read-out: IC90 Range.
Format: cell-based, HIV-1
Excerpt: As discussed above, the novel compounds of the present invention are excellent ligands for aspartyl proteases, particularly HIV-1 and HIV-2 proteases. Accordingly, these compounds are capable of targeting and inhibiting late stage events in HIV replication, i.e., the processing of the viral polyproteins by HIV encoded proteases. […] Because aspartyl protease is essential for the production of mature virions, inhibition of that processing effectively blocks the spread of virus by inhibiting the production of infectious virions, particularly from chronically infected cells. […] Other anti-viral assays have confirmed the potency of these compounds.
Compounds of formula I were tested for their antiviral potency in several virological assays. In the first assay, the compounds were added as a solution in dimethylsulfoxide (DMSO) to a test cell culture of CCRM-CEM cells, a strain of CD4^+ human T-cell lymphoma cells, previously acutely infected with HIVIIIb using standard protocols (see Meek, T. D. et al., "Inhibition of HIV-1 protease in infected T-lymphocytes by synthetic peptide analogues", Nature, 343, p. 90 (1990). Preferred compounds are those which are able to inhibit 90% of viral infectivity at a concentration of 1 μM or less. More preferred compounds are those which are able to inhibit 90% of viral infectivity at a concentration of 100 nM or less.
The effect of the compounds on inhibiting the replication of the virus was measured by determining the HIV extracellular p24 antigen concentration using a commercial enzyme immunoassay (obtained from Coulter Corporation, Hialeah, Fla.).
Compound `C=CCOC(=O)N[C@@H](Cc1ccccc1)[C@H](O)CN(CC1CCCC1)S(=O)(=O)c1ccc(F)cc1` [Compound 114, N-((3-Allyloxycarbonylamino)-(2 syn,3S)-2-hydroxy-4-phenyl-butyl)-N-cyclopentylmethyl-4-fluoro-benzenesulfonamide] has an IC90 of 101 to 1000 nM.
Work on `C=CCOC(=O)N[C@@H](Cc1ccccc1)[C@H](O)CN(CC1CCCC1)S(=O)(=O)c1ccc(NC(C)=O)cc1` [Compound 146, N-(4-((3-(Allyloxycarbonylamino)-(2 syn,3S)-2-hydroxy-4-phenyl-butyl)-cyclopentylmethylsulfamoyl)-phenyl)-acetamide] yielded an IC90 of 101 to 1000 nM.
With `CC(=O)Nc1cc(S(=O)(=O)N(CC(C)C)C[C@@H](O)[C@H](Cc2ccccc2)NC(=O)O[C@H]2CCOC2)ccc1F` [Compound 88, N-(2-Fluoro-5-(((2 syn,3S)-2-hydroxy-4-phenyl-3-((S)-tetrahydrofuran-3-yloxycarbonylamino)-butyl)-isobutyl-sulfamoyl)-phenyl)-acetamide] the IC90 was 101 to 1000 nM.
For `Cc1ccc(S(=O)(=O)N(CC(C)C)C[C@@H](O)[C@H](Cc2ccccc2)NC(=O)O[C@H]2CCOC2)cc1` [Compound 165, N-((2 syn,3S)-2-Hydroxy-4-phenyl-3-((syn)-tetrahydrofuran-3-yloxycarbonylamino)-butyl)-N-isobutyl-4-methyl-benzenesulfonamide], the IC90 was 101 to 1000 nM.
In the case of `CC(=O)Nc1nc(C)c(S(=O)(=O)N(CC(C)C)C[C@@H](O)[C@H](Cc2ccccc2)NC(=O)[C@H](CC(N)=O)NC(=O)c2ccc3ccccc3n2)s1` [Compound 18], the IC90 is reported as 101 to 1000 nM.
For `CC(C)CN(C[C@@H](O)[C@H](Cc1ccccc1)NC(=O)O[C@H]1CCOC1)S(=O)(=O)c1cccc(Cl)c1` [Compound 138, 3-Chloro-N-((2 syn,3S)-2-hydroxy-4-phenyl-3-((S)-tetrahydrofuran-3-yloxycarbonylamino)-butyl)-N-isobutyl-benzenesulfonamide], the IC90 was 101 to 1000 nM.
With `NC(=O)C[C@H](NC(=O)c1ccc2ccccc2n1)C(=O)N[C@@H](Cc1ccccc1)[C@H](O)CN(Cc1ccccc1)S(=O)(=O)c1ccc(-c2ccon2)s1` [Compound 6, (S)-N-1-(1-Benzyl-3-(benzyl-(5-isoxazol-3-yl-thiophene-2-sulfonyl)-amino)-(1S,2 syn)-1-benzyl-2-hydroxy-propyl)-2-((quinoline-2-carbonyl)-amino)-succinamide] the IC90 was 101 to 1000 nM.
For `COc1ccc(S(=O)(=O)N(CC2CCCC2)C[C@@H](O)[C@H](Cc2ccccc2)NC(=O)O[C@H]2CCOC2)cc1` [Compound 140, N-cyclopentylmethyl-N-((2 syn,3S)-2-hydroxy-4-phenyl-3-((S)-tetrahydrofuran-3-yloxycarbonylamino)-butyl)-4-methoxy-benzenesulfonamide], the IC90 was < 100 nM.
In the case of `O=C(N[C@@H](Cc1ccccc1)[C@H](O)CN(CC1CCCC1)S(=O)(=O)c1ccc(Cl)cc1)OCc1cccnc1` [Compound 118], the IC90 is reported as 101 to 1000 nM.
In the case of `NC(=O)C[C@H](NC(=O)c1ccc2ccccc2n1)C(=O)N[C@@H](Cc1ccccc1)[C@H](O)CN(Cc1ccccc1)S(=O)(=O)c1cccc2nonc12` [Compound 9, (S)-N-1-(3-((Benzo(1,2,5)oxadiazole-4-sulfonyl)-benzyl-amino)-(1S,2 syn)-1-benzyl-2-hydroxy-propyl)-2-((quinoline-2-carbonyl)-amino)-succinamide], the IC90 is reported as 101 to 1000 nM.
`COc1ccc(S(=O)(=O)N(CC2CCCC2)C[C@@H](O)[C@H](Cc2ccccc2)NC(=O)OCc2cccnc2)cc1` [Compound 142] was tested, and the IC90 was < 100 nM.
With `O=C(N[C@@H](Cc1ccccc1)[C@H](O)CN(CC1CCCC1)S(=O)(=O)c1ccc(F)cc1)O[C@H]1CCOC1` [Compound 182, N-Cyclopentylmethyl-4-fluoro-N-((2 syn,3S)-2-hydroxy-4-phenyl-3-((S)-tetrahydrofuran-3-yloxycarbonylamino)-butyl)-benzenesulfonamide] the IC90 was 101 to 1000 nM.
In the case of `CC(C)CN(C[C@@H](O)[C@H](Cc1ccccc1)NC(=O)O[C@H]1CCOC1)S(=O)(=O)c1cc(Cl)c(Cl)s1` [Compound 95], the IC90 is reported as 1000 to 10000 nM.
For `C=CCOC(=O)N[C@@H](Cc1ccccc1)[C@H](O)CN(CC1CCCC1)S(=O)(=O)c1ccc(Cl)cc1` [Compound 117], the IC90 was 1000 to 10000 nM.
With `CC(=O)Nc1cccc(S(=O)(=O)N(CC(C)C)C[C@@H](O)[C@H](Cc2ccccc2)NC(=O)O[C@H]2CCOC2)c1` [Compound 91, N-(3-(((2 syn,3S)-2-Hydroxy-4-phenyl-3-((S)-tetrahydrofuran-3-yloxycarbonylamino)-butyl)-isobutyl-sulfamoyl)-phenyl)-acetamide] the IC90 was 101 to 1000 nM.
For `COc1ccc(S(=O)(=O)N(CC2CCCC2)C[C@@H](O)[C@H](CC2CCCCC2)NC(=O)O[C@H]2CCOC2)cc1` [Compound 195, N-((2 syn,3S)-4-Cyclohexyl-2-hydroxy-3-((S)-tetrahydrofuran-3-yloxycarbonylamino)-butyl)-N-cyclopentylmethyl-4-methoxy-benzenesulfonamide], the IC90 was < 100 nM.
Compound `NC(=O)C[C@H](NC(=O)c1ccc2ccccc2n1)C(=O)N[C@@H](Cc1ccccc1)[C@H](O)CN(Cc1ccccc1)S(=O)(=O)c1cccc(C(F)(F)F)c1` [Compound 4] has an IC90 of 1000 to 10000 nM.
For `O=C(N[C@@H](Cc1ccccc1)[C@H](O)CN(CC1CCCCC1)S(=O)(=O)c1ccc(F)cc1)O[C@H]1CCOC1` [Compound 159, N-Cyclohexylmethyl-4-fluoro-N-((2 syn,3S)-2-hydroxy-4-phenyl-3-((S)-tetrahydrofuran-3-yloxycarbonylamino)-butyl)-benzenesulfonamide], the IC90 was 101 to 1000 nM.
For `O=C(N[C@@H](Cc1ccccc1)[C@H](O)CN(CC1CCCC1)S(=O)(=O)c1ccc(O)cc1)OCc1cccnc1` [Compound 166, N-cyclopentylmethyl-4-hydroxy-N-((2 syn,3S)-2-hydroxy-4-phenyl-3-(pyridin-3-yl-methoxycarbonylamino)-butyl)-benzenesulfonamide], the IC90 was < 100 nM.
With `CC(C)CN(C[C@@H](O)[C@H](Cc1ccccc1)NC(=O)OCc1ccccc1)S(=O)(=O)c1ccc2nonc2c1` [Compound 65] the IC90 was 1000 to 10000 nM.
Work on `CCOC(=O)N[C@@H](Cc1ccccc1)[C@H](O)CN(CC1CCCC1)S(=O)(=O)c1ccc(F)cc1` [Compound 115, N-Cyclopentylmethyl-N-((3-ethoxycarbonylamino)-(2 syn,3S)-2-hydroxy-4-phenyl-butyl)-4-fluoro-benzenesulfonamide] yielded an IC90 of 101 to 1000 nM.
For `O=C(N[C@@H](Cc1ccccc1)[C@H](O)CN(CC1CCCC1)S(=O)(=O)c1cccnc1)O[C@H]1CCOC1` [Compound 149, Pyridine-3-sulfonic acid cyclopentylmethyl-((2 syn,3S)-2-hydroxy-4-phenyl-3-((S)-tetrahydrofuran-3-yloxycarbonylamino)-butyl)-amide], the IC90 was 101 to 1000 nM.
In the case of `CC(=O)Nc1ccc(S(=O)(=O)N(CC(C)C)C[C@@H](O)[C@H](Cc2ccccc2)NC(=O)O[C@@H]2CCOC2)cc1` [Compound 94, N-(4-(((syn)-2-Hydroxy-(S)-4-phenyl-3-((tetrahydro-furan-(R)-3-yl)-oxycarbonylamino)-butyl)-isobutyl-sulfamoyl)-phenyl)-acetamide], the IC90 is reported as 101 to 1000 nM.
`C=CCOC(=O)N[C@@H](Cc1ccccc1)[C@H](O)CN(CC1CCCC1)S(=O)(=O)c1ccc2c(c1)CCN2C(C)=O` [Compound 156] was tested, and the IC90 was 101 to 1000 nM.
For `COc1ccc(S(=O)(=O)N(CC(C)C)C[C@@H](O)[C@H](Cc2ccccc2)NC(=O)O[C@H]2CCOC2)cc1` [Compound 100, N-((2 syn,3S)-2-Hydroxy-4-phenyl-3-((S)-tetrahydrofuran-3-yloxycarbonylamino)-butyl)-N-isobutyl-4-methoxy-benzenesulfonamide], the IC90 was < 100 nM.
`CC(C)CN(C[C@@H](O)[C@H](Cc1ccccc1)NC(=O)O[C@H]1CCOC1)S(=O)(=O)c1cccnc1` [Compound 144, Pyridine-3-sulfonic acid ((2 syn,3S)-2-hydroxy-4-phenyl-3-((S)-tetrahydrofuran-3-yloxycarbonylamino)-butyl)-isobutyl-amide, trifluoroacetic acid salt] showed an IC90 of 101 to 1000 nM.
In the case of `CC(C)CN(C[C@@H](O)[C@H](Cc1ccccc1)NC(=O)OC[C@@H]1COC(=O)N1)S(=O)(=O)c1ccc(F)cc1` [Compound 109, 4-Fluoro-N-(2-(syn)-hydroxy-3-((2-oxazolidon-(S)-4-yl)-methoxycarbonylamino)-4-(S)-phenyl-butyl)-N-isobutyl-benzenesulfonamide], the IC90 is reported as 101 to 1000 nM.
`COc1ccc(S(=O)(=O)N(CC(C)C)C[C@@H](O)[C@H](Cc2ccccc2)NC(=O)OCc2ccncc2)cc1` [Compound 163, N-((2 syn,3S)-2-Hydroxy-4-phenyl-3-(pyridin-4-yl-methoxycarbonylamino)-butyl)-N-isobutyl-4-methoxy-benzenesulfonamide] showed an IC90 of 101 to 1000 nM.
Work on `CC(C)(C)OC(=O)N[C@@H](Cc1ccccc1)[C@H](O)CN(CC1CCCC1)S(=O)(=O)c1ccc(Cl)c(Cl)c1` [Compound 84] yielded an IC90 of 1000 to 10000 nM.
In the case of `CC(C)CN(C[C@@H](O)[C@H](Cc1ccccc1)NC(=O)O[C@H]1CCOC1)S(=O)(=O)c1ccoc1` [Compound 113], the IC90 is reported as 101 to 1000 nM.
`NC(=O)C[C@H](NC(=O)c1ccc2ccccc2n1)C(=O)N[C@@H](Cc1ccccc1)[C@H](O)CN(Cc1ccccc1)S(=O)(=O)c1ccccc1` [Compound 1] showed an IC90 of 1000 to 10000 nM.
`C=C(COC)COC(=O)N[C@@H](Cc1ccccc1)[C@H](O)CN(CC1CCCC1)S(=O)(=O)c1ccc(OC)cc1` [Compound 162] gave an IC90 of 1000 to 10000 nM.
